One block for each compound: values may come before it. Where a SMILES comes first, the peptide text is derived from it. Where no end group is shown, it is not given here. The star is where a group is joined. Cbz = O=C(OCc1ccccc1)*
Legend:
[1] = system: Ang I to Ang-(1–7) converting peptidase activity in isolated nuclei from NRK-52E cells; experiment: Peptide metabolism: generation of Ang-; type: biochemical, rat; conditions: 37°C, 125I-Ang I 0.5 nM; SCH39370 10 μM, ZPP 50 μM; HPLC with γ detector
(pro)renin receptor = conditions: cited from earlier work
[2] = molecular target: T1, renin (NRK-52E cell nuclei) (Rattus norvegicus, UniProt P08424); experiment: Renin activity assay in nuclear lysate of NRK-52E cells; type: biochemical; conditions: basal (control) nuclear lysate, aliskiren 1 μM, 37°C, 90 min; n = 3 passages
T1 sequence (P08424 65-402): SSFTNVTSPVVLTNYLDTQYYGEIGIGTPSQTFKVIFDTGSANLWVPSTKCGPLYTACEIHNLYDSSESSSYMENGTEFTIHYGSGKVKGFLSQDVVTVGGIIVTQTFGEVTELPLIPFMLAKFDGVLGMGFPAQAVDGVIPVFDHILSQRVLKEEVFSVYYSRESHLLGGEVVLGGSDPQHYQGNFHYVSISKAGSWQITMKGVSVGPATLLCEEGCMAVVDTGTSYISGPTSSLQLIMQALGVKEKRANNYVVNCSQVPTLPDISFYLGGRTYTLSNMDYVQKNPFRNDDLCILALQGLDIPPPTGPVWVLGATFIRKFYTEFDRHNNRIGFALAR

[3] = dose higher than the maximal recommended dose for heart failure and hypertension; without a further decline in blood pressure; cited from earlier work
[4] = pH 7.4

Compound: O=C(O)C(O)CNC(=O)[C@H](Cc1ccccc1)NC(CCc1ccccc1)C(=O)O (stereo partly drawn) [SCH39370]
Effect on generation of Ang-(1–7) in the nuclear extract [1]: did not block

Compound: O=C[C@@H]1CCCN1C(=O)[C@@H]1CCCN1C(=O)OCc1ccccc1 [ZPP, Z-prolyl prolinal] (Cbz-Pro-Pro-aldehyde)
Effect on generation of Ang-(1–7) in the nuclear extract [1]: did not block

Reduction of nuclear renin activity [2]: 83%
Compound: COCCCOc1cc(C[C@@H](C[C@H](N)[C@@H](O)C[C@H](C(=O)NCC(C)(C)C(N)=O)C(C)C)C(C)C)ccc1OC [aliskiren]
Effect on binding of (pro)renin to the receptor ((pro)renin receptor): do not block

Compound: CCOc1nc2cccc(C(=O)O)c2n1Cc1ccc(-c2ccccc2-c2nnn[nH]2)cc1 [candesartan]
Effect on persistent proteinuria [3]: significantly reduced

Half-life in nuclear cell extracts [4]: 1.22 h
Compound: DRVYIHPFHL [Ang I]

Reference: paper PMC4276551 (Journal of the renin-angiotensin-aldosterone system : JRAAS, 2014)
